Assay results: article PMC9409995, “Pharmacological Properties and Function of the PxOctβ3 Octopamine Receptor in Plutella xylostella (L.)” (Insects, 2022)

Key:
PxOctβ3 [1] = target: T1, PxOctβ3 (Plutella xylostella, UniProt Z9TZ33AL48); experiment: intracellular cAMP assay, HEK-293 cells stably expressing the receptor; format: cell-based
T1 construct: pcDNA3.1-PxOctβ3 stably expressed in HEK-293 cells; ORF also cloned in pEGFP-N1

PxOctβ3 [2] = target: T1, PxOctβ3; experiment: as above; format: cell-based; details: agonist; 1 nM-100 μM; b43 prints approximately 65 nM

SMILES	fold cAMP at 10 μM (PxOctβ3 [1]; weak agonist)	fold cAMP at 10 μM (PxOctβ3 [1]; agonist) [fold]	further results
Clc1cccc(Cl)c1NC1=NCCN1 [clonidine]	clonidine, amitraz, and 2-phenylethylamine were barely effective agonists		
Cc1ccc(/N=C/N(C)/C=N/c2ccc(C)cc2C)c(C)c1 [amitraz]	clonidine, amitraz, and 2-phenylethylamine were barely effective agonists		
NCCc1ccc(O)c(O)c1 [dopamine]		2.3	
NCCc1ccc(O)cc1 [tyramine]		9.6	
NC[C@H](O)c1ccc(O)cc1 [octopamine]			EC50 (PxOctβ3 [2]): 65 nM
NCCc1ccccc1 [2-phenylethylamine]	clonidine, amitraz, and 2-phenylethylamine were barely effective agonists		
